From article PMC7155171, “Probing the Open Global Health Chemical Diversity Library for Multistage-Active Starting Points for Next-Generation Antimalarials” (ACS Infectious Diseases, 2020)
Like-named read-outs stand apart in the source and are kept apart here.

What was measured:
[1] = tested on: P. falciparum Dd2 (PfLuc) line expressing firefly luciferase, asexual blood stage; assay: microbe, parasite or virus in culture; assay type: cell-based, Plasmodium falciparum; conditions: Plasmodium falciparum
P. falciparum Dd2 = assay: SYBR green I asexual blood stage proliferation assay (96 h); assay type: cell-based, Plasmodium falciparum; conditions: Plasmodium falciparum, DD2, 11-pt dose response, 96hr
[2] = DD2, read-out: CDD P. falciparum Luciferase ABS 11-pt Reconfirmation Dose Response (48hr): IC50 (μM), 11-pt dose response, 48hr
[3] = DD2, 8-pt dose response, 96hr, read-out: CDD P. falciparum Luciferase ABS 8-pt Reconfirmation Dose Response (96hr): IC50
[4] = DD2, 8-pt dose response, 96hr, read-out: CDD P. falciparum Luciferase ABS 8-pt Reconfirmation Dose Response (96hr): Maximum inhibition (%)
[5] = DD2, 11-pt dose response, 48hr, read-out: CDD P. falciparum Luciferase ABS 11-pt Reconfirmation Dose Response (48hr): Maximum inhibition (%)
[6] = DD2, 11-pt dose response, 96hr, read-out: CDD P. falciparum Luciferase ABS 11-pt Reconfirmation Dose Response (96hr): IC50
[7] = DD2, 11-pt dose response, 96hr, read-out: CDD P. falciparum Luciferase ABS 11-pt Reconfirmation Dose Response (96hr): Maximum inhibition (%)
[8] = Sybr Green I, read-out: CDD P. falciparum Sybr Green I ABS 11-pt Reconfirmation Dose Response (96hr): IC50
[9] = Sybr Green I, read-out: CDD P. falciparum Sybr Green I ABS 11-pt Reconfirmation Dose Response (96hr): Maximum inhibition (%)
[10] = DD2, read-out: P. falciparum Luciferase ABS 11-pt Reconfirmation Dose Response (48hr): IC50, 11-pt dose response, 48hr
[11] = DD2, 8-pt dose response, 96hr, read-out: P. falciparum Luciferase ABS 8-pt Reconfirmation Dose Response (96hr): IC50
[12] = DD2, 8-pt dose response, 96hr, read-out: P. falciparum Luciferase ABS 8-pt Reconfirmation Dose Response (96hr): Maximum inhibition (%)
[13] = DD2, 11-pt dose response, 48hr, read-out: P. falciparum Luciferase ABS 11-pt Reconfirmation Dose Response (48hr): Maximum inhibition (%)
[14] = DD2, 11-pt dose response, 96hr, read-out: P. falciparum Luciferase ABS 11-pt Reconfirmation Dose Response (96hr): IC50
[15] = DD2, 11-pt dose response, 96hr, read-out: P. falciparum Luciferase ABS 11-pt Reconfirmation Dose Response (96hr): Maximum inhibition (%)
[16] = read-out: P. falciparum Sybr Green I ABS 11-pt Reconfirmation Dose Response (96hr): IC50
[17] = read-out: P. falciparum Sybr Green I ABS 11-pt Reconfirmation Dose Response (96hr): Maximum inhibition (%)

SMILES	IC50 [1, 2] [µM]	IC50 [1, 3] [µM]	Emax [1, 4] [%]	Emax [1, 5] [%]	IC50 [1, 6] [µM]	Emax [1, 7] [%]	IC50 (P. falciparum Dd2; [8]) [µM]	Emax (P. falciparum Dd2; [9]) [%]	IC50 [1, 10] [µM]	IC50 [1, 11] [µM]	Emax [1, 12] [%]	Emax [1, 13] [%]	IC50 [1, 14] [µM]	Emax [1, 15] [%]	IC50 (P. falciparum Dd2; [16]) [µM]	Emax (P. falciparum Dd2; [17]) [%]
Cc1cccc(Nc2cccc(C3CCCN(Cc4ncc[nH]4)C3)n2)n1 (stereo not shown) [DDD01059475]	1.69	1.07	95.8	98.9	> 1.39	100	0.965	92.2								
CN(C)[C@@H]1CCN(c2ncc(F)cn2)[C@H]1Cc1ccccc1 [DDD01033375]	5.55	1.11	86.7	53.2	2.25	86.9	> 4.16	74.6								
COc1ccc(C(C)NCc2ccsc2)cc1Cn1cccn1 (stereo not shown) [DDD01061827]	> 12.5	0.79	81.9	38.8	1.78	68.9	> 4.16	58.7								
Cc1ccsc1CN(CCCN(C)C)Cc1ccccn1 [DDD01060996]	> 12.5	0.55	79.6	51.6	3.57	82.3	> 12.5	46.2								
COc1ccc(NC(=O)Nc2cnc(N3CCN(C)CC3)nc2)cc1Cl [DDD01028129]									> 12.5	1.39	94.1	14.8	4.41	57.8	> 12.5	38.2
COCCC1(CNC(=O)Nc2ccnc(C)c2)CCCC1 [DDD01077091]	> 12.5	1.04	79.6	48.9	> 1.39	82	> 12.5	47.9								
Cc1cc(C2CCCN(CC(=O)Nc3nc4c(s3)CCC4)C2)n[nH]1 (stereo not shown) [DDD01079504]	0.456	0.28	81.5	84.9	0.388	97.8	0.179	71.3								
NCC1Cc2cc(-c3nccc(N4CCC(O)CC4)n3)cc(Cl)c2O1 (stereo not shown) [DDD01245918]	2.64	0.55	92	75.2	1.96	96.7	4.21	83.9								
CCN1CCC2(CC1)CC(NCc1cccc(C)n1)c1ccccc1O2 (stereo not shown) [DDD01034133]	11.7	0.72		67.5	3.23	88.1	10.3	79.5								
CN(CCCO)Cc1cc(Cl)ccc1OCC(O)CN1CCCCCC1 (stereo not shown) [DDD01251957]	2.71	0.99	94.6	99.2	> 1.39	101	2.75									
Cc1cc(N2CCC(NC(C)Cc3ccsc3)CC2)nc(C)n1 (stereo not shown) [DDD01076128]									2.25	1.19	89.6	81.4	1.09	96.6	7.78	72.7
CC(C)N(C)Cc1cnc2n1CCN(C(=O)NC1CCCC1)C2 [DDD01085014]	> 12.5	0.4	87.1	50.3	0.478	91	3.09	52.8								
Cc1nc[nH]c1CN(C)CC1CCCN(CCc2ccc(Cl)cc2)C1 (stereo not shown) [DDD01257555]	1.62	0.65	93.5	99.6	0.463	99.9	0.963	98.8								
O=C(CC1CCCC1)NCCNCc1cccc2c1OCCO2 [DDD01067280]	> 12.5	1.09	84.7	64.2	> 1.39	89.2	> 4.16	67								
CCN(Cc1c(F)cccc1Cl)c1cc(C2CCNCC2)nc(C)n1 [DDD01245231]	0.763	0.55	91.3	99.4	0.504	99.8	2.5	81.1								
